By IC50 is commonly meant the concentration at which inhibition is half-maximal.

Results on seven molecules are retold here after publication PMC10324454, “Novel pyrimidine Schiff bases and their selenium-containing nanoparticles as dual inhibitors of CDK1 and tubulin polymerase: design, synthesis, anti-proliferative evaluation, and molecular modelling” (Journal of Enzyme Inhibition and Medicinal Chemistry, 2023).

One data set in a line: in vitro. More on the design: MTT cytotoxicity assay, formazan absorbance, viability IC50. To be noted: african green monkey, vero cells; read-out: IC50 Vero. The protocol: The cytotoxic activity of all synthesised compounds, both normal and nano-sized forms, was evaluated against three cancer cell lines, breast cancer (MCF-7), hepatocellular carcinoma (HepG-2), and non-small cell lung cancer (A549), while the normal Vero cell line was performed for the promising compounds 4, 6 and their nano-sized 4NPs, 6NPs, using the MTT assay according to the literature. The cell lines were obtained from ATCC (American Type Culture Collection). 5-Fluorouracil was used as a control. It is worth noting that freshly prepared nanoparticle-based compounds were used in each of the conducted experiments. The protocol of the MTT assay was illustrated in detail in the Supplementary File. S3 1.1. Biological activity 1.1.1. In vitro cytotoxicity assay The cytotoxic activity of all synthesized compounds, both normal and nano-sized forms, was evaluated against three cancer cell lines, breast cancer (MCF-7), hepatocellular carcinoma (HepG-2), and non-small cell lung cancer (A549), while the normal Vero cell line was performed for the promising compounds 4, 6 and their nano-sized 4NPs, 6NPs, using the MTT assay according to the literature. […] The cytotoxic activities of the examined compounds were quantified by inoculating a 96-well tissue culture plate with 1 X 10 5 cells / mL (100 uL/well) and incubating it at 37°C for 24 hours to develop a complete monolayer sheet. […]

Another data set relates to A549. The data set is described as follows: cells. Also noted: MTT cytotoxicity assay, formazan absorbance, viability IC50. To be noted: Homo sapiens. The protocol: (§1) The cytotoxic activity of all synthesised compounds, both normal and nano-sized forms, was evaluated against three cancer cell lines, breast cancer (MCF-7), hepatocellular carcinoma (HepG-2), and non-small cell lung cancer (A549), while the normal Vero cell line was performed for the promising compounds 4, 6 and their nano-sized 4NPs, 6NPs, using the MTT assay according to the literature. The cell lines were obtained from ATCC (American Type Culture Collection). 5-Fluorouracil was used as a control. It is worth noting that freshly prepared nanoparticle-based compounds were used in each of the conducted experiments. The protocol of the MTT assay was illustrated in detail in the Supplementary File. S3 1.1. Biological activity 1.1.1. In vitro cytotoxicity assay The cytotoxic activity of all synthesized compounds, both normal and nano-sized forms, was evaluated against three cancer cell lines, breast cancer (MCF-7), hepatocellular carcinoma (HepG-2), and non-small cell lung cancer (A549), while the normal Vero cell line was performed for the promising compounds 4, 6 and their nano-sized 4NPs, 6NPs, using the MTT assay according to the literature. The cell lines were obtained from ATCC (American Type Culture Collection). 5-Fluorouracil was used as a reference drug. The cytotoxic activities of the examined compounds were quantified by inoculating a 96-well tissue culture plate with 1 X 10 5 cells / mL (100 uL/well) and incubating it at 37°C for 24 hours to develop a complete monolayer sheet. After forming a confluent sheet of cells, the growth medium was decanted from 96-well microtiter plates, and the cell monolayer was washed twice with wash media. Two-fold dilutions of tested samples were made in RPMI medium with 2% serum (maintenance medium), and 0.1 mL of each dilution was tested in different wells, with three wells serving as controls and receiving only maintenance medium. Following that, the plate was incubated at 37°C and examined. Cells were investigated for any physical signs of toxicity, such as partial or complete monolayer loss, rounding, shrinkage, or cell granulation. MTT solution was prepared (5mg/ml in PBS) (BIO BASIC CANADA INC), and 20 uL MTT solution was added to each well. After 5 minutes on a shaking table at 150 rpm to thoroughly mix the MTT into the media, it was incubated (37 ° C, 5% CO2) for 4 hours to allow the MTT to be metabolized. Formazan (MTT metabolic product) was resuspended in 200 uL DMSO and shaken at 150 rpm for 5 minutes to t

A further data set has as its system HepG-2. The data set is described as follows: cells. More on the design: MTT cytotoxicity assay, formazan absorbance, viability IC50. As to conditions: Homo sapiens, HepG2. The protocol:
as §1

The next data set has as its system MCF-7. The data set is described as follows: cells. More on the design: MTT cytotoxicity assay, formazan absorbance, viability IC50. As to conditions: Homo sapiens, MCF7. On the procedure: as §1
Data set [1] concerns the target T1, tubulin (tubulin polymerase, colchicine binding site).
T1 construct: with alpha/beta-tubulin heterodimer
The data set is described as follows: colchicine-tubulin competition-binding assay. As to conditions: read-out: Tubulin polymerase (CBS) (IC50 μM ± SD).

In the next data set the target is T2, CDK1 (Homo sapiens, UniProt P06493).
T2 construct: with cyclin B1
T2 sequence (P06493 whole entry): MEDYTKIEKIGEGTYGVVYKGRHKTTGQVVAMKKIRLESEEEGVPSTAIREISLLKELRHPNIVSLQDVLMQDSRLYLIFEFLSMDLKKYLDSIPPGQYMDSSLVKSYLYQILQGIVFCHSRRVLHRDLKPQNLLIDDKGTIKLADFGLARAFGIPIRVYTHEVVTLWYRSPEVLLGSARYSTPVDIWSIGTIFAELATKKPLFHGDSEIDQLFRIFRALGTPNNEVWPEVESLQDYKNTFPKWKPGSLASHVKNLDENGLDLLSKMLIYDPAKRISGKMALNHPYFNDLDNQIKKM
T2 sequence (P14635 whole entry partner): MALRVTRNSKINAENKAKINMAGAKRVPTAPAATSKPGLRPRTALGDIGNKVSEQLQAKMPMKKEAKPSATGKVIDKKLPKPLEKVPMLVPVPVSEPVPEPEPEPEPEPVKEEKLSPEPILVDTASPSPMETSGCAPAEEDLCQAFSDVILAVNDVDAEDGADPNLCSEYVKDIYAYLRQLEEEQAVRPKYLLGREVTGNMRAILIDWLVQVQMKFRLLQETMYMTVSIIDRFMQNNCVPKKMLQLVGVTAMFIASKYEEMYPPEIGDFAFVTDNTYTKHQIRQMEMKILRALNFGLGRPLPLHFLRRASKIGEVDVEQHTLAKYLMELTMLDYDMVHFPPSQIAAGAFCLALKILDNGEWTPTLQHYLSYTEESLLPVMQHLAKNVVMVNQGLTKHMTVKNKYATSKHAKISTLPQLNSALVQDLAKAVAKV
The data set is described as follows: in vitro CDK1/cyclin B1 kinase inhibition assay (kit). Format: biochemical. As to conditions: read-out: CDK1 (IC50 μM ± SD).

Turning to `O=c1[nH]cc(F)c(=O)[nH]1` [5-FU, 5-fluorouracil], the CC50 in “in vitro” is 3.04 µM. Further, the IC50 came out at 0.76 µM with A549, 1.36 µM with HepG-2 and 1.82 µM in the data set on MCF-7.
Regarding `CN(C)c1ccc(/C=N/c2c(N)n(C)c(=O)[nH]c2=O)cc1` [compound 4, (E)-6-amino-5-((4-(dimethylamino)benzylidene)amino)-1-methylpyrimidine-2,4(1H,3H)-dione], the IC50 in data set [1] came out at 1.93 ± 0.119 µM; on CDK1, 2.18 ± 0.06 µM; in the data set with HepG-2, 1.07 ± 0.03 µM.
In turn, `Cn1c(N)c(/N=C/c2ccc(O)cc2)c(=O)[nH]c1=O` [compound 5, (E)-6-amino-5-((4-hydroxybenzylidene)amino)-1-methylpyrimidine-2,4(1H,3H)-dione] came in with a half-inhibitory concentration (IC50) in the data set on HepG-2 of 4.07 ± 0.08 µM.
The same measure, in the same setting: to `CCn1c(N)c(/N=C/c2ccc(O)cc2)c(=O)[nH]c1=O` [compound 6, (E)-6-amino-1-ethyl-5-((4-hydroxybenzylidene)amino)pyrimidine-2,4(1H,3H)-dione] belongs 1.97 ± 0.05 µM; to `CCn1c(N)c(/N=C/c2ccc([N+](=O)[O-])cc2)c(=O)[nH]c1=O` [compound 7, (E)-6-amino-1-ethyl-5-((4-nitrobenzylidene)amino)pyrimidine-2,4(1H,3H)-dione], 3.38 ± 0.11 µM.
`CCn1c(N)c(/N=C/c2ccccc2[N+](=O)[O-])c(=O)[nH]c1=O` [compound 8, (E)-6-amino-1-ethyl-5-((2-nitrobenzylidene)amino)pyrimidine-2,4(1H,3H)-dione] yielded an IC50 in the data set on HepG-2 of 2.1 ± 0.09 µM.
The same measure, in the same setting: the value for `CCn1c(N)c(/N=C/c2ccc(Br)cc2)c(=O)[nH]c1=O` [compound 9, (E)-6-amino-5-((4-bromobenzylidene)amino)-1-ethylpyrimidine-2,4(1H,3H)-dione] was 3.47 ± 0.09 µM.
